Where two headings read alike, the source gives them in different places.
Columns and labels:
[1] = DPPH radical scavenging activity; details: for DPPH Inhibition (%), Mean ± SD: at 5 µM; for EC50: mean ± SD of triplicates
Method: DPPH radical scavenging activity were carried out using procedures previously described with slight modifications. Shortly, 160 µL of sample solutions/positive control (ascorbic acid) were mixed with 40 µL of DPPH solution and incubated at room temperature for 30 min. After that, absornace were measured at 520 nm using a microplate reader spectrophotometer VERSAmax (Molecular Devices).

[2] = Pro-oxidant assay (reducing power); details: ascorbic acid as positive control; Figure 3
Method: The pro-oxidant activity of isolated compounds were assessed with slight modifications. Shortly, 250 µL of sample solutions/positive control (ascorbic acid) dissolved in 0.2 M phosphate buffer (pH 6.6) and 25 µL of 1% potassium ferricyanide […] were incubated at 50 °C for 20 min. After that, an equal volume of 10% trichloroacetic acid was added and then centriguged at 3000 g for 10 min. The supernatant (500 µL) and distilled water (500 µL) was mixed followed by addition of 0.1% ferric chloride (0.1 mL). Immediately, absorbance were measured spectrophotometrically at 700 nm.

BACE1 = target: T1, BACE1 (Homo sapiens, UniProt P56817); experiment: In vitro BACE1 enzyme assay (FRET kit); format: biochemical
T1 construct: purchased PanVera Corp. (Madison, WI, USA)
T1 sequence (P56817 46-501): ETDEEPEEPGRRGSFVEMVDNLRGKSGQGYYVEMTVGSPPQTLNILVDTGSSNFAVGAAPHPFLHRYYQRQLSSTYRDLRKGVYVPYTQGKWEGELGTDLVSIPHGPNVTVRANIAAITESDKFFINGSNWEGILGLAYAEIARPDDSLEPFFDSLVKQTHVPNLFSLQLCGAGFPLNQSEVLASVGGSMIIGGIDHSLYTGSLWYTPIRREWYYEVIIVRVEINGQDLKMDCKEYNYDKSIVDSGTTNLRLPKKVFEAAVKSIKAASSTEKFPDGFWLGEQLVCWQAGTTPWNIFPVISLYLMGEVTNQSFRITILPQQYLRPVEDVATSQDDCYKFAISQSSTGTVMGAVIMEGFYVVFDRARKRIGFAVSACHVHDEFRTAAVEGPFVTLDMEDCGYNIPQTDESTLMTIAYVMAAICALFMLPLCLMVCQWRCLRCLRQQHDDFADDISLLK
Method: Each assay was carried out according to the supplied instructions provided by the manufacturer with slight modifications. […] After incubation, the reaction was ceased using 10 µL of BACE1 stop solution and absorbance was measured at 545 nm […] and 585 nm (emission) wavelengths using microplate spectrofluorometer (Spectramax Gemini XPS, Molecular Devices).
(§1) The inhibition constant (Ki) and inhibition mode of α-glucosidase and BACE1 were calculated with Lineweaver-Burk and Dixon plots. […] Each graph was generated using SigmaPlot 12.0 (Systat Software Inc., San Jose, CA, USA) and GraphPad Prism 5 (GraphPad Prism Software, Inc., La Jolla, CA, USA).

yeast α-glucosidase = experiment: In vitro α-glucosidase inhibitory activity assay (p-NPG substrate); format: biochemical; details: for Ki: Dixon plot; for type of α-glucosidase inhibition (in words): Lineweaver-Burk and Dixon plots; for α-Glucosidase Inhibition (%), Mean ± SD: at 100 µM; for IC50: mean ± SD of triplicates
Method: The inhibitory activity against yeast α-glucosidase enzyme was carried out spectrophotometrically in a 96-well micro-plate reader (Molecular Devices, Sunnyvale, CA, USA), using a procedure reported by Li et al. with slight modifications. […] After 15 min of incubation, the reaction was ceased using 80 µL of stop solution (0.2 M sodium carbonate) and absorbance was measured at 405 nm.
as §1

human recombinant PTP1B = target: T2, human recombinant PTP1B (Homo sapiens, UniProt P18031); experiment: In vitro PTP1B inhibitory activity assay (p-NPP substrate); format: biochemical; details: mean ± SD of triplicates
T2 construct: purchased Biomol International, LLP (Plymouth Meeting, PA, USA)
T2 sequence (P18031 1-435): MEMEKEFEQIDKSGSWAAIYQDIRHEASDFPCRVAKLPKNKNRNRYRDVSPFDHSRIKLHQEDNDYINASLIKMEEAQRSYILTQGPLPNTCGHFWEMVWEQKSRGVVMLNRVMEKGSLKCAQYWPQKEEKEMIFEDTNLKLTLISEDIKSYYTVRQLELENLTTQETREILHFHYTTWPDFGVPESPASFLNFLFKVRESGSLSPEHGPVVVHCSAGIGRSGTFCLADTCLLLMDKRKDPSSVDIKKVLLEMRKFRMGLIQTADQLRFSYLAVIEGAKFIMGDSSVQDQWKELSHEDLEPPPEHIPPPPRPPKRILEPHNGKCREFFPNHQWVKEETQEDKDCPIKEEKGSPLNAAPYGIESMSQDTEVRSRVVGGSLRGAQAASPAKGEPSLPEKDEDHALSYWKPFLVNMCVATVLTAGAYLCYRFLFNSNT
Method: The inhibitory activity of the isolated compounds against human recombinant PTP1B was evaluated using p-NPP as a substrate with slight modifications. […] After incubation, the reaction was ceased using 10 µL of stop solution (10 mM sodium hydroxide) and absorbance was measured at 405 nm.

[3] = Peroxynitrite (ONOO−) scavenging activity; details: for ONOO− Inhibition (%), Mean ± SD: at 5 µM; for EC50: mean ± SD of triplicates
Method: Peroxynitrite (ONOO^−) scavenging activity was carried ou with slight modifications. Shortly, 10 µL of sample solutions/positive control (penicillamine) were mixed with rhodamine buffer (pH 7.4) containing 50 mM sodium phosphate dibasic, 50 mM sodium phosphate monobasic, 90 mM sodium chloride, 5 mM potassium chloride, and 100 μM DTPA. The final DHR 123 concentration was 5 µM. The fluorescent intensities were measured after 5 min with/without authentic ONOO^− using a fluorescence microplate reader (Spectramax Gemini XPS, Molecular Devices) at wavelenghts of 485 and 530 nm of excitation and emission, respectively.

α-glucosidase = details: cited from earlier work
[4] = read-out: BACE1 Inhibition (%), Mean ± SD

SMILES | DPPH Inhibition (%), Mean ± SD [1] | EC50 [1] | reducing power (pro-oxidant activity) [2] | Ki (yeast α-glucosidase) | type of α-glucosidase inhibition (in words) (yeast α-glucosidase) | α-Glucosidase Inhibition (%), Mean ± SD (yeast α-glucosidase) | IC50 (yeast α-glucosidase) | IC50 (human recombinant PTP1B) | ONOO− Inhibition (%), Mean ± SD [3] | EC50 [3] | other results
O=C1O[C@H]([C@@H](O)CO)C(O)=C1O [Ascorbic acid, ascorbic acid, reference compound] | 18.72 ± 0.44 % | 21.35 ± 0.09 µM | – | – | – | – | – | – | – | – | –
O=c1cc(-c2ccc(O)c(O)c2)oc2cc(O)cc(O[C@@H]3O[C@H](CO)[C@@H](O)[C@H](O)[C@H]3O)c12 [Luteolin 5-O-β-D-glucopyranoside, luteolin 5-O-β-D-glucopyranoside] | 52.43 ± 0.53 % | 4.76 ± 0.05 µM | higher reducing power | 272 µM | mixed type of inhibition | 14.02 ± 1.45 % | 270 ± 4.69 µM | > 400 µM | 79.23 ± 4.95 % | 500 ± 30 nM | inhibition at 100 µM (BACE1; at 100 µM, read-out: BACE1 Inhibition (%), Mean ± SD): 17.5 ± 1.65%; IC50 (BACE1; mean ± SD of triplicates): 970 ± 7.83 µM
O=c1cc(-c2ccc(O)c(O)c2)oc2cc(O[C@@H]3O[C@H](CO)[C@@H](O)[C@H](O)[C@H]3O)cc(O)c12 [Luteolin 7-O-β-D-glucopyranoside, luteolin 7-O-β-D-glucopyranoside] | 58.97 ± 1.95 % | 4.79 ± 0.19 µM | – | 251 µM | competitive inhibition | 25.53 ± 1.21 % | 249 ± 2.56 µM | > 400 µM | 80.23 ± 4.22 % | 2510 ± 50 nM | –
O=c1cc(-c2ccc(O)c(O)c2)oc2cc(O)cc(O)c12 [Luteolin, luteolin] | 76.65 ± 0.73 % | 3.05 ± 0.06 µM | lower reducing power than positive control ascorbic acid | 52 µM | non-competitive | 69.12 ± 1.20 % | 51.3 ± 1.23 µM | > 400 µM | 85.21 ± 1.61 % | 860 ± 40 nM | type of BACE1 inhibition (in words) (BACE1; Lineweaver-Burk and Dixon plots): non-competitive; inhibition at 100 µM (BACE1; [4]): 73.73 ± 0.57%; α-glucosidase inhibition percentage (α-glucosidase; at 200 µM, mixed type (close to non-competitive), ref Tadera et al. [31]): 92%; α-glucosidase inhibition (α-glucosidase; at a concentration of 0.5 mg/mL, ref Kim et al. [32]): 36%; IC50 (α-glucosidase; mixed type inhibition, ref Xu et al. [35]): 18.6 µM; IC50 (α-glucosidase; non-competitive inhibition, ref Ha et al. [28]): 45.4 µM; IC50 (α-glucosidase; ref Proença et al. [34]): 46 ± 6 µM; IC50 (α-glucosidase; reversible, non-competitive, ref Yan et al. [29]): 172 µM; potency against α-glucosidase compared with the positive control, acarbose (yeast α-glucosidase; ratio of IC50 values): five-fold more potent
CC(C)(S)[C@@H](N)C(=O)O [Penicillamine, penicillamine, reference compound] | – | – | – | – | – | – | – | – | 56.57 ± 2.03 % | 2280 ± 20 nM | –
O=c1c(O)c(-c2ccc(O)c(O)c2)oc2cc(O)cc(O)c12 [Quercetin, quercetin, reference compound] | – | – | – | – | – | – | – | – | – | – | inhibition at 4.5 µg/mL (BACE1; [4]): 70 ± 3.91%; inhibition at 10 µM (BACE1; [4]): 67.6 ± 4.1%

— paper PMC6385118, “Korean Thistle (Cirsium japonicum var. maackii (Maxim.) Matsum.): A Potential Dietary Supplement against Diabetes and Alzheimer’s Disease” (Molecules, 2019)
